{
  "source": "patent US8067015B2",
  "about": "“Methods and compositions for the treatment and prevention of Staphylococcus and other bacterial infections” (priority 1997, dated 2011)",
  "key": {"[1]": {"tested_on": "S. epidermidis MSSE strain", "test": "Rat subcutaneous Dacron graft infection model, MSSE strain", "assay_type": "in vivo", "details": "for Bacterial concentration, MSSE: 2×10^7 bacteria, explanted day 7; for Bacterial concentration, MSSE / Bacterial load on graft, MSSE: mean ± SD; for Bacterial load on graft, MSSE: Table 3A S. epidermidis", "method": "(§1) Rats (Wistar adult males (300-350 g), n=15/experimental group) were anaesthetized, hair on their back shaved and the skin cleansed with 10% povidone-iodine solution. A subcutaneous pocket was made on the side of the median line by a 1.5 cm incision. Aseptically, 1 cm^2 sterile collagen-sealed Dacron graft (Albograft™, Sorin Biomedica Cardio, S.p.A., Saluggi VC, Italy) was implanted into the pocket. […] Pockets were closed by skin clips and 1 ml sterile saline solution with or without 2×10^7 bacteria was inoculated onto the graft surface using a tuberculin syringe to create a subcutaneous fluid-filled pocket. Some of the animals that had grafts soaked only with RIP or saline were injected intraperitoneally with antibiotics (cefazolin 30 mg/kg, imipenem 30 mg/kg, teicoplanin 10 mg/kg, levofloxacin 10 mg/kg). Grafts were explanted 7 days following implantation.\n(§2) The explanted grafts were placed in sterile tubes, washed in sterile saline solution, placed in tubes containing 10 ml of phosphate-buffered saline solution and sonicated for 5 min to remove the adherent bacteria from the grafts. Quantitation of viable bacteria was performed by culturing serial 10-fold dilutions (0.1 ml) of the bacterial suspension on blood agar plates. All plates were incubated at 37° C. for 48 hr and evaluated for the presence of the strain. Bacteria were quantitated by counting the number of colony forming unites (CFU) per plate. To determine if bacteria were efficiently removed from the graft, washed and sonicated grafts were observed under a Nikon Eclipse E 600 optical microscope (Nikon Y-THS, Japan).\nQuantitative culture results of the in vivo experiments were presented as mean+SD of the mean. Comparisons of the results were performed by the analysis of variance (ANOVA) on the log-transformed data. Statistical analysis was performed for in vitro adhesion assays using Student's t-Test by Microsoft Excel (Microsoft, Wash.). Significance was accepted when the P value was <0.05.\nTo test if RIP can prevent graft-associated infections, Dacron grafts were coated with or without RIP, and with or without various types of antibiotics (for local prophylaxis experiments). Coated grafts were implanted in rats, bacteria injected into the implants, implants removed after a week, and bacterial load determined. Alternatively, Dacron grafts were first coated with RIP, bacteria injected, and antibiotics were administered by the intraperitoneal route (for parenteral prophylaxis experiments). As a negative control, grafts were implanted without local or parenteral RIP/antibiotics prophylaxis and no bacteria were injected. As a positive control, grafts were implanted, bacteria were injected, but no RIP/antibiotics prophylaxis was given.\nAnimals (15/group) received a Dacron-graft implanted in a subcutaneous pocket. Graft was subsequently infected with either S. epidermidis (tested on MSSE, MRSE and GISE) or with S. aureus (tested on MSSA, MRSA and GISA). […]"}, "S. aureus MRSA": {"tested_on": "S. aureus MRSA", "test": "Rat subcutaneous Dacron graft infection model, MRSA strain", "assay_type": "in vivo", "details": "Table 3B S. aureus, mean ± SD", "method": "as §1, with “implantation. Estimated RIP that adhered to graft was 10-26 μg.” for “implantation.”\nas §2\nAnimals (15/group) received a Dacron-graft implanted in a subcutaneous pocket. Graft was subsequently infected with either S. epidermidis (tested on MSSE, MRSE and GISE) or with S. aureus (tested on MSSA, MRSA and GISA). The Dacron-graft prior to implantation was soaked in saline with or without 20 mg/l of RIP and some animals received […] of RIP i.p. as a prophylaxis treatment."}, "[2]": {"tested_on": "S. epidermidis (all strains tested)", "test": "Rat subcutaneous Dacron graft infection model, all strains tested (GISE, MRSE, MSSE)", "assay_type": "in vivo", "details": "RIP-coated graft", "method": "as §1, with “Some of the animals that had grafts soaked only with RIP or saline were injected intraperitoneally with antibiotics (cefazolin 30 mg/kg, imipenem 30 mg/kg, teicoplanin 10 mg/kg, levofloxacin 10 mg/kg). Grafts were explanted 7 days following implantation.” left out\nas §2, with “To determine if bacteria were efficiently removed from the graft, washed and sonicated grafts were observed under a Nikon Eclipse E 600 optical microscope (Nikon Y-THS, Japan).” left out\nQuantitative culture results of the in vivo experiments were presented as mean+SD of the mean. […]"}, "TRAP": {"tested_on": "TRAP", "details": "1 hr", "method": "S. aureus (right panel) and S. epidermidis (left panel) were in vivo phosphorylated for 1 hr in the presence or absence of RIP. Total cell homogenate was separated by SDS PAGE and the gel was autoradiographed.\nTo test for TRAP phosphorylation in S. epidermidis, in vivo phosphorylation assays were carried out as described for S. aureus. Briefly, early exponential S. epidermidis were grown in the presence of phosphate-free buffer supplemented with radiolabeled orthophosphate with or without RIP (10 μg/10^7 cells). After a 1 hr incubation period, the cells were collected by centrifugation, treated with lysostaphin followed by the addition of sample buffer, and total cell homogenate was applied without boiling to 15% SDS PAGE and the gel autoradiographed. The same experiment was carried out on 6390B S. aureus cells as a positive control."}, "[3]": {"tested_on": "S. epidermidis adherence to polystyrene", "test": "Adherence and biofilm formation of S. epidermidis on polystyrene (safranin)", "assay_type": "cell-based", "details": "polystyrene microtiter plates, 3 hrs", "method": "FIG. 14B is a graph depicting adherence in the presence of RIP RIP+ and in the absence of RIP RIP−. S. epidermidis were grown in polystyrene plates for 3 hrs, adherent bacteria were stained by safranin, and absorbance at 490 nm was determined.\nTo test whether RIP reduces adherence and biofilm formation of S. epidermidis to plastic, early exponential S. epidermidis were grown for 3 hrs in microtiter plates made of polystyrene, and adherent cells were stained with safranin. These experimental conditions allow for biofilm to be formed (as observed by atomic force microscopy, not shown)."}, "RNAIII": {"tested_on": "RNAIII", "details": "cited from earlier work"}, "S. aureus MS": {"tested_on": "S. aureus MS", "details": "rabbits; cited from earlier work"}, "[4]": {"tested_on": "bacterial adhesion to polystyrene, silicone and polyurethane", "details": "cited from earlier work"}, "[5]": {"details": "RIP local (graft soaked in 20 mg/l RIP)"}, "[6]": {"details": "RIP parenteral (10 mg/l RIP i.p.)"}},
  "note": "Read-outs that look alike come from different tables or passages of the source. Where no end group is shown, it is not given here.",
  "data": [
    {"substance": "YSPWTNF(—NH2) (YSPWTNF-NH2) [RIP]", "values": [
      {"measurement": "Bacterial concentration, MSSE", "setting": "[1]; A. Local prophylaxis: graft soaked 20 min in RIP 10 mg/l and/or antibiotic (mupirocin 100, quinupristin-dalfopristin 50, levofloxacin 30, rifampin 5 mg/l), rats", "value": "0.91 ± 0.23 ×10^4 CFU/ml"},
      {"measurement": "Bacterial concentration, MSSE", "setting": "[1]; B. Parenteral prophylaxis: antibiotic intraperitoneally (cefazolin 30, imipenem 30, teicoplanin 10, levofloxacin 10 mg/kg), RIP as 10 mg/l graft soak, rats", "value": "0.91 ± 0.23 ×10^4 CFU/ml"},
      {"measurement": "Bacterial load on graft, MSSE", "setting": "[1]; [5]", "value": "0.08 ± 0.024 ×10^4 CFU/ml"},
      {"measurement": "Bacterial load on graft, MSSE", "setting": "[1]; RIP local + RIP parenteral", "value": "0.00 ± 0 ×10^4 CFU/ml"},
      {"measurement": "Bacterial load on graft, MSSE", "setting": "[1]; [6]", "value": "0.067 ± 0.019 ×10^4 CFU/ml"},
      {"measurement": "Quantitative culture results of explanted graft, MSSE strain", "setting": "[1]; peptide-soaked/coated Dacron graft (RIP 10 mg/l), no antibiotic, rats, day 7", "value": "9.1×10^3±2.3×10^3 CFU/ml"},
      {"measurement": "Bacterial load on graft, MRSE", "setting": "S. aureus MRSA; [5]", "value": "0.62 ± 0.21 ×10^4 CFU/ml"},
      {"measurement": "Bacterial load on graft, MRSE", "setting": "S. aureus MRSA; RIP local + RIP parenteral", "value": "0.00 ± 0 ×10^4 CFU/ml"},
      {"measurement": "Bacterial load on graft, MRSE", "setting": "S. aureus MRSA; [6]", "value": "0.29 ± 0.088 ×10^4 CFU/ml"},
      {"measurement": "Reduction of bacterial load", "setting": "[2]", "value": 3, "unit": "log"},
      {"measurement": "TRAP phosphorylation", "setting": "TRAP; RIP 10 μg/10^7 cells, S. epidermidis", "value": "can be inhibited"},
      {"measurement": "TRAP phosphorylation", "setting": "TRAP; in presence or absence of RIP, S. aureus", "value": "inhibits TRAP phosphorylation"},
      {"measurement": "Number of cells that adhered to the plastic", "setting": "[3]", "value": "significantly reduced"},
      {"measurement": "Inhibiting RNAIII in vitro", "setting": "RNAIII", "value": "extremely effective"},
      {"measurement": "Suppressing S. aureus infection: osteomyelitis", "setting": "S. aureus MS", "value": "extremely effective"},
      {"measurement": "Bacterial adhesion to plastic", "setting": "[4]", "value": "decreased"}
    ]}
  ]
}
